Measurements taken from US9605004B2, “Chemical compounds” (SYNGENTA LIMITED, priority 2013, dated 2017).

Tests used:
[1] = tested on: a variety of test species; assay: Pre-emergence herbicidal activity (Example 8a, Table 2); format: in vivo; design: key: 0 = no damage to plant, 5 = total damage to plant; settings: application pre-emergence, rate 1000 g/ha, evaluated after 13 days
Experimental: Seeds of a variety of test species were sown in standard soil in pots. After cultivation for one day (pre-emergence) under controlled conditions in a glasshouse (at 24/16° C., day/night; 14 hours light; 65% humidity), the plants were sprayed with an aqueous spray solution derived from the formulation of the technical active ingredient in acetone/water (50:50) solution containing 0.5% Tween 20 (polyoxyethelyene sorbitan monolaurate, CAS RN 9005-64-5). The test plants were then grown in a glasshouse under controlled conditions (at 24/16° C., day/night; 14 hours light; 65% humidity) and watered twice daily. After 13 days, the test was evaluated (5=total damage to plant; 0=no damage to plant).

[2] = tested on: a variety of test species; assay: Post-emergence herbicidal activity (Example 8b, Table 3); format: in vivo; settings: application post-emergence, rate 1000 g/ha, evaluated after 13 days, scale 0-5; for Herbicidal damage score, ABUTH: Abutilon theophrasti; for Herbicidal damage score, ALOMY: Alopecurus myosuroides; for Herbicidal damage score, AMARE: Amaranthus retroflexus; for Herbicidal damage score, ECHCG: Echinochloa crus-galli; for Herbicidal damage score, SETFA: Setaria faberi; for Herbicidal damage score, ZEAMX: Zea mays
Experimental: Seeds of a variety of test species were sown in standard soil in pots. After 8 days cultivation (post-emergence) under controlled conditions in a glasshouse (at 24/16° C., day/night; 14 hours light; 65% humidity), the plants were sprayed with an aqueous spray solution derived from the formulation of the technical active ingredient in acetone/water (50:50) solution containing 0.5% Tween 20 (polyoxyethelyene sorbitan monolaurate, CAS RN 9005-64-5). The test plants were then grown in a glasshouse under controlled conditions (at 24/16° C., day/night; 14 hours light; 65% humidity) and watered twice daily. After 13 days, the test was evaluated (5=total damage to plant; 0=no damage to plant).

CCOC(c1cc(N2C(=O)C(Cl)=C(C)C2O)nn1C)C(C)(C)C (mixture of isomers) [Compound B34]
1: Pre-emergence herbicidal activity, damage score SETFA [1] | Pre-emergence herbicidal activity, damage score ZEAMX [1]
4: Pre-emergence herbicidal activity, damage score ABUTH [1]
2: Pre-emergence herbicidal activity, damage score ALOMY [1] | Pre-emergence herbicidal activity, damage score AMARE [1] | Herbicidal damage score, AMARE [2]
3: Pre-emergence herbicidal activity, damage score ECHCG [1] | Herbicidal damage score, ALOMY [2] | Herbicidal damage score, ECHCG [2] | Herbicidal damage score, SETFA [2]
0: Herbicidal damage score, ZEAMX [2]
5: Herbicidal damage score, ABUTH [2]

CC1=C(Cl)C(=O)N(c2cc(C(F)C(C)(C)C)n(C)n2)C1O (mixture of isomers) [Compound B37]
5: Pre-emergence herbicidal activity, damage score AMARE [1] | Herbicidal damage score, ALOMY [2] | Herbicidal damage score, AMARE [2] | Herbicidal damage score, ECHCG [2] | Herbicidal damage score, SETFA [2]
4: Pre-emergence herbicidal activity, damage score ABUTH [1] | Pre-emergence herbicidal activity, damage score SETFA [1] | Herbicidal damage score, ABUTH [2] | Herbicidal damage score, ZEAMX [2]
3: Pre-emergence herbicidal activity, damage score ALOMY [1] | Pre-emergence herbicidal activity, damage score ECHCG [1] | Pre-emergence herbicidal activity, damage score ZEAMX [1]

CC1=C(Cl)C(=O)N(c2cc(C(C)(F)C(C)(C)C)n(C)n2)C1O (mixture of isomers) [Compound B40]
3: Pre-emergence herbicidal activity, damage score AMARE [1] | Pre-emergence herbicidal activity, damage score SETFA [1]
5: Pre-emergence herbicidal activity, damage score ABUTH [1] | Herbicidal damage score, ABUTH [2] | Herbicidal damage score, AMARE [2] | Herbicidal damage score, ECHCG [2] | Herbicidal damage score, SETFA [2]
4: Herbicidal damage score, ALOMY [2]
1: Pre-emergence herbicidal activity, damage score ALOMY [1] | Herbicidal damage score, ZEAMX [2]
2: Pre-emergence herbicidal activity, damage score ECHCG [1]
0: Pre-emergence herbicidal activity, damage score ZEAMX [1]

CC1=C(Cl)C(=O)N(c2cc(C(C)c3ccccc3)n(C)n2)C1O (mixture of isomers) [Compound B41]
2: Pre-emergence herbicidal activity, damage score AMARE [1] | Pre-emergence herbicidal activity, damage score ZEAMX [1] | Herbicidal damage score, ZEAMX [2]
5: Herbicidal damage score, ABUTH [2] | Herbicidal damage score, ALOMY [2] | Herbicidal damage score, ECHCG [2] | Herbicidal damage score, SETFA [2]
3: Pre-emergence herbicidal activity, damage score ALOMY [1]
4: Pre-emergence herbicidal activity, damage score ABUTH [1] | Pre-emergence herbicidal activity, damage score ECHCG [1] | Pre-emergence herbicidal activity, damage score SETFA [1] | Herbicidal damage score, AMARE [2]

CC1=C(Cl)C(=O)N(c2cc([S+](C)[O-])n(C)n2)C1O (mixture of isomers) [Compound B46]
5: Pre-emergence herbicidal activity, damage score ABUTH [1] | Pre-emergence herbicidal activity, damage score AMARE [1] | Herbicidal damage score, ABUTH [2] | Herbicidal damage score, AMARE [2] | Herbicidal damage score, ECHCG [2] | Herbicidal damage score, SETFA [2]
3: Pre-emergence herbicidal activity, damage score ALOMY [1]
1: Pre-emergence herbicidal activity, damage score ZEAMX [1]
4: Pre-emergence herbicidal activity, damage score ECHCG [1] | Pre-emergence herbicidal activity, damage score SETFA [1] | Herbicidal damage score, ALOMY [2] | Herbicidal damage score, ZEAMX [2]

CCC1CCn2nc(N3C(=O)C(Cl)=C(C)C3O)cc21 (mixture of isomers) [Compound C10]
2: Pre-emergence herbicidal activity, damage score ZEAMX [1]
4: Pre-emergence herbicidal activity, damage score ABUTH [1] | Pre-emergence herbicidal activity, damage score ALOMY [1] | Pre-emergence herbicidal activity, damage score ECHCG [1] | Herbicidal damage score, ALOMY [2] | Herbicidal damage score, ZEAMX [2]
5: Pre-emergence herbicidal activity, damage score AMARE [1] | Pre-emergence herbicidal activity, damage score SETFA [1] | Herbicidal damage score, ABUTH [2] | Herbicidal damage score, AMARE [2] | Herbicidal damage score, ECHCG [2] | Herbicidal damage score, SETFA [2]

CC1=C(Cl)C(=O)N(c2cc3n(n2)CCC3C)C1O (mixture of isomers) [Compound G1]
4: Pre-emergence herbicidal activity, damage score ALOMY [1] | Pre-emergence herbicidal activity, damage score SETFA [1]
5: Pre-emergence herbicidal activity, damage score ABUTH [1] | Pre-emergence herbicidal activity, damage score AMARE [1] | Pre-emergence herbicidal activity, damage score ECHCG [1] | Herbicidal damage score, ABUTH [2] | Herbicidal damage score, ALOMY [2] | Herbicidal damage score, AMARE [2] | Herbicidal damage score, ECHCG [2] | Herbicidal damage score, SETFA [2] | Herbicidal damage score, ZEAMX [2]
3: Pre-emergence herbicidal activity, damage score ZEAMX [1]

CCC1CCCn2nc(N3C(=O)C(Cl)=C(C)C3O)cc21 (mixture of isomers) [Compound G5]
5: Pre-emergence herbicidal activity, damage score ABUTH [1] | Pre-emergence herbicidal activity, damage score AMARE [1] | Pre-emergence herbicidal activity, damage score ECHCG [1] | Herbicidal damage score, ABUTH [2] | Herbicidal damage score, AMARE [2] | Herbicidal damage score, ECHCG [2] | Herbicidal damage score, SETFA [2] | Herbicidal damage score, ZEAMX [2]
3: Pre-emergence herbicidal activity, damage score ALOMY [1]
1: Pre-emergence herbicidal activity, damage score ZEAMX [1]
4: Pre-emergence herbicidal activity, damage score SETFA [1] | Herbicidal damage score, ALOMY [2]

CC1=C(Cl)C(=O)N(c2cc3n(n2)CCC3C)C1O (mixture of isomers) [Compound G6]
3: Pre-emergence herbicidal activity, damage score ZEAMX [1]
4: Pre-emergence herbicidal activity, damage score ALOMY [1] | Pre-emergence herbicidal activity, damage score SETFA [1]
5: Pre-emergence herbicidal activity, damage score ABUTH [1] | Pre-emergence herbicidal activity, damage score AMARE [1] | Pre-emergence herbicidal activity, damage score ECHCG [1] | Herbicidal damage score, ABUTH [2] | Herbicidal damage score, ALOMY [2] | Herbicidal damage score, AMARE [2] | Herbicidal damage score, ECHCG [2] | Herbicidal damage score, SETFA [2] | Herbicidal damage score, ZEAMX [2]

CCC1CCCn2nc(N3C(=O)C(Cl)=C(C)C3O)cc21 (mixture of isomers) [Compound G7]
3: Pre-emergence herbicidal activity, damage score ALOMY [1]
1: Pre-emergence herbicidal activity, damage score ZEAMX [1]
4: Pre-emergence herbicidal activity, damage score SETFA [1] | Herbicidal damage score, ALOMY [2]
5: Pre-emergence herbicidal activity, damage score ABUTH [1] | Pre-emergence herbicidal activity, damage score AMARE [1] | Pre-emergence herbicidal activity, damage score ECHCG [1] | Herbicidal damage score, ABUTH [2] | Herbicidal damage score, AMARE [2] | Herbicidal damage score, ECHCG [2] | Herbicidal damage score, SETFA [2] | Herbicidal damage score, ZEAMX [2]

CC1=C(Cl)C(=O)N(c2cc3n(n2)CC[S+]([O-])C3(C)C)C1O (mixture of isomers) [Compound G12]
3: Pre-emergence herbicidal activity, damage score ALOMY [1] | Pre-emergence herbicidal activity, damage score SETFA [1] | Pre-emergence herbicidal activity, damage score ZEAMX [1] | Herbicidal damage score, ALOMY [2] | Herbicidal damage score, SETFA [2]
4: Pre-emergence herbicidal activity, damage score ABUTH [1] | Pre-emergence herbicidal activity, damage score AMARE [1] | Pre-emergence herbicidal activity, damage score ECHCG [1] | Herbicidal damage score, ABUTH [2] | Herbicidal damage score, AMARE [2] | Herbicidal damage score, ECHCG [2]
1: Herbicidal damage score, ZEAMX [2]

CC1=C(Br)C(=O)N(c2cc3n(n2)CC[S+]([O-])C3(C)C)C1O (mixture of isomers) [Compound M5]
2: Pre-emergence herbicidal activity, damage score ABUTH [1] | Pre-emergence herbicidal activity, damage score AMARE [1] | Pre-emergence herbicidal activity, damage score ECHCG [1] | Herbicidal damage score, ALOMY [2] | Herbicidal damage score, AMARE [2] | Herbicidal damage score, ECHCG [2]
4: Herbicidal damage score, ABUTH [2]
0: Herbicidal damage score, ZEAMX [2]
1: Pre-emergence herbicidal activity, damage score ALOMY [1] | Pre-emergence herbicidal activity, damage score SETFA [1] | Pre-emergence herbicidal activity, damage score ZEAMX [1] | Herbicidal damage score, SETFA [2]

CC1=C(Cl)C(=O)N(c2cc(C(C)(C)C)[nH]n2)C1O (stereo not drawn) [Compound A1]
5: Pre-emergence herbicidal activity, damage score ABUTH [1] | Pre-emergence herbicidal activity, damage score AMARE [1] | Pre-emergence herbicidal activity, damage score ECHCG [1] | Pre-emergence herbicidal activity, damage score SETFA [1] | Herbicidal damage score, ABUTH [2] | Herbicidal damage score, ALOMY [2] | Herbicidal damage score, AMARE [2] | Herbicidal damage score, ECHCG [2] | Herbicidal damage score, SETFA [2] | Herbicidal damage score, ZEAMX [2]
2: Pre-emergence herbicidal activity, damage score ZEAMX [1]
3: Pre-emergence herbicidal activity, damage score ALOMY [1]

CC1=C(Cl)C(=O)N(c2cc(C(F)(F)F)[nH]n2)C1O (stereo not drawn) [Compound A2]
5: Pre-emergence herbicidal activity, damage score ABUTH [1] | Pre-emergence herbicidal activity, damage score AMARE [1] | Herbicidal damage score, ABUTH [2] | Herbicidal damage score, SETFA [2]
1: Herbicidal damage score, ZEAMX [2]
3: Pre-emergence herbicidal activity, damage score ECHCG [1] | Herbicidal damage score, AMARE [2]
4: Herbicidal damage score, ALOMY [2] | Herbicidal damage score, ECHCG [2]
0: Pre-emergence herbicidal activity, damage score ALOMY [1] | Pre-emergence herbicidal activity, damage score SETFA [1]
2: Pre-emergence herbicidal activity, damage score ZEAMX [1]
